The text below walks through data of US20250354151A1, “INHIBITORY AGENT FOR MYOCARDIAL CELL DEATH, AND PROPHYLACTIC OR THERAPEUTIC AGENT FOR MYOCARDIAL DISORDERS OR HEART FAILURE” (KYOTO PREFECTURAL PUBLIC UNIVERSITY CORPORATION, priority 2022, published 2025).

Data set [1] has as its system iPS cell-derived cardiomyocytes. The experiment in a line: Viability of cardiomyocytes after treatment with the TAOK1 inhibitor and doxorubicin (PrestoBlue). The note with it: C43 final concentration 10 nM, added simultaneously with doxorubicin; measured 3 days later; FIG. 4. It is filed as cell-based, human. As to the method: The iPS cell-derived cardiomyocytes were seeded on the 96-well plate coated with the growth factor reduced matrigel, after 5 days or more from the seeding, the TAOK1 inhibitor C43 (MedChemExpress) and the doxorubicin were simultaneously added, and 3 days later, the cell viability was measured with SpectraMaxM2e using the PrestoBlue reagent.

For data set [2] the test system is unchanged. In words: Oxygen consumption measurement (Seahorse XF Cell Mito Stress Test). Type of data set: cell-based, human. Particulars: doxorubicin 1 μM for 3 hours vs 0 μM; FIG. 7. As to the method:
TAOK1 knock-out cells were obtained from the iPS cell-derived cardiomyocytes in a similar manner as in Test Example 2-1. The obtained cells were treated with the doxorubicin at 0 μM or 1 μM for 3 hours, and oxygen consumption was measured using a Seahorse XFe 96 Flux Analyzer (Agilent) and a Seahorse XF Cell Mito Stress Test Kit (Agilent).

Regarding `O=C(CNC(=O)c1ccc(-c2ccccc2)cc1)NC1CCCc2ccccc21` (centres unmarked) [Entry C43, N-[2-oxo-2-(1,2,3,4-tetrahydronaphthalen-1-ylamino)ethyl]biphenyl 4-carboxamide], in data set [1], the “cell viability (myocardial cell death caused by the doxorubicin)” value is “inhibit the myocardial cell death caused by the doxorubicin”.

On to `COc1cccc2c1C(=O)c1c(O)c3c(c(O)c1C2=O)C[C@@](O)(C(=O)CO)C[C@@H]3O[C@H]1C[C@H](N)[C@H](O)[C@H](C)O1` [doxorubicin], for which the “oxygen consumption of the cardiomyocytes” value in data set [2] is listed as “significantly reduced”.
